Measured values taken from the supplement of paper PMC10307832.

Each cell line was assayed with Cc1ccc2nc(NCCN)c3ncc(C)n3c2c1 + CC(=O)c1c(C)c2cnc(Nc3ccc(N4CCNCC4)cn3)nc2n(C2CCCC2)c1=O [Palbociclib] (partner 0.5 µM) (assay: relative viability (nuclei count vs DMSO), 5 days (fraction); higher = more cells survive). Settings: first compound 0.04 µM.
Method in brief: (§1)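 Relative viability equals treated-well nuclei counts divided by vehicle-well nuclei counts. Counts came from 4× images of lung cancer cell lines grown in 1536-well plates for 5 days after pin-tool dosing on the day after seeding. Dosing used one drug alone or a fixed anchor-drug dose plus five library-drug doses (not always all listed) in √10 steps, and values are medians of duplicate plates.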

Cell Line	relative viability
HCC-78	0.499
NCI-H322M	0.506
LCLC-97TM1	0.236
NCI-H2009	0.238
A-427	0.531
NCI-H441	0.251
NCI-H661	0.423
NCI-H1734	0.319
NCI-H460	0.114
NCI-H2347	0.431
SK-LU-1	0.412
NCI-H1395	0.647
201T	0.396
NCI-H1915	0.512
HCC-827	0.437
LXF-289	0.605

Cell Line	relative viability
NCI-H23	0.501
NCI-H647	0.41
CAL-12T	0.499
NCI-H1651	0.545
EPLC-272H	0.337
NCI-H2228	0.649
NCI-H1792	0.694
NCI-H1355	0.46
NCI-H3122	0.167
NCI-H1437	0.3
NCI-H1755	0.454
NCI-H2023	0.369
HCC-15	0.789
PC-14	0.447
EKVX	0.441

Same assay, conditions: first compound 0.1265 µM

Cell Line	relative viability
HARA	0.236
SW 900	0.522
HCC-78	0.475
NCI-H322M	0.491
LCLC-97TM1	0.217
NCI-H2009	0.202
A-427	0.485
NCI-H441	0.271
NCI-H661	0.452
NCI-H1734	0.367
NCI-H460	0.152
NCI-H2347	0.451
SK-LU-1	0.383
NCI-H1395	0.613
201T	0.367
NCI-H1915	0.51
HCC-827	0.517

Cell Line	relative viability
LXF-289	0.648
NCI-H23	0.562
NCI-H647	0.412
CAL-12T	0.47
NCI-H1651	0.515
EPLC-272H	0.348
NCI-H2228	0.763
NCI-H1792	0.649
NCI-H1355	0.4
NCI-H3122	0.193
NCI-H1437	0.315
NCI-H1755	0.482
NCI-H2023	0.366
HCC-15	0.773
PC-14	0.488
EKVX	0.358

Same assay, conditions: first compound 0.4 µM

Cell Line	relative viability
HARA	0.237
SW 900	0.587
HCC-78	0.484
NCI-H322M	0.512
LCLC-97TM1	0.247
NCI-H2009	0.245
A-427	0.496
NCI-H441	0.181
NCI-H661	0.407
NCI-H1734	0.369
NCI-H460	0.147
NCI-H2347	0.417
SK-LU-1	0.385
NCI-H1395	0.597
201T	0.33
NCI-H1915	0.39
HCC-827	0.473

Cell Line	relative viability
LXF-289	0.604
NCI-H23	0.437
NCI-H647	0.405
CAL-12T	0.39
NCI-H1651	0.518
EPLC-272H	0.315
NCI-H2228	0.908
NCI-H1792	0.652
NCI-H1355	0.406
NCI-H3122	0.163
NCI-H1437	0.296
NCI-H1755	0.486
NCI-H2023	0.366
HCC-15	0.616
PC-14	0.475
EKVX	0.36

Same assay, conditions: first compound 1.265 µM

Cell Line	relative viability
HARA	0.222
SW 900	0.464
HCC-78	0.437
NCI-H322M	0.468
LCLC-97TM1	0.218
NCI-H2009	0.275
A-427	0.506
NCI-H441	0.26
NCI-H661	0.439
NCI-H1734	0.319
NCI-H460	0.204
NCI-H2347	0.433
SK-LU-1	0.393
NCI-H1395	0.546
201T	0.363
NCI-H1915	0.552
HCC-827	0.501

Cell Line	relative viability
LXF-289	0.638
NCI-H23	0.469
NCI-H647	0.413
CAL-12T	0.376
NCI-H1651	0.512
EPLC-272H	0.257
NCI-H2228	0.782
NCI-H1792	0.562
NCI-H1355	0.409
NCI-H3122	0.199
NCI-H1437	0.248
NCI-H1755	0.455
NCI-H2023	0.433
HCC-15	0.708
PC-14	0.386
EKVX	0.351

Same assay, conditions: first compound 4 µM

Cell Line	relative viability
HARA	0.268
SW 900	0.589
HCC-78	0.369
NCI-H322M	0.542
LCLC-97TM1	0.245
NCI-H2009	0.295
A-427	0.555
NCI-H441	0.248
NCI-H661	0.477
NCI-H1734	0.254
NCI-H460	0.0833
NCI-H2347	0.455
SK-LU-1	0.38
NCI-H1395	0.557
201T	0.323
NCI-H1915	0.488
HCC-827	0.495

Cell Line	relative viability
LXF-289	0.556
NCI-H23	0.309
NCI-H647	0.296
CAL-12T	0.48
NCI-H1651	0.512
EPLC-272H	0.249
NCI-H2228	0.648
NCI-H1792	0.625
NCI-H1355	0.376
NCI-H3122	0.213
NCI-H1437	0.287
NCI-H1755	0.385
NCI-H2023	0.238
HCC-15	0.485
PC-14	0.244
EKVX	0.295

Each cell line was assayed with O=C(/C=C/c1ccccc1)NC(NC(=S)Nc1cccc2cccnc12)C(Cl)(Cl)Cl [Salubrinal] + N=C(N)NC(=N)NCCc1ccccc1 [Phenformin] (partner 250 µM) in the same assay as above. Settings: first compound 0.08 µM.
Method in brief: as §1

Cell Line	relative viability
HARA	0.607
SW 900	0.555
HCC-78	0.736
NCI-H322M	0.783
LCLC-97TM1	0.388
NCI-H2009	0.534
A-427	0.326
NCI-H441	0.939
NCI-H661	0.278
NCI-H1734	0.416
NCI-H460	0.706
NCI-H2347	0.321
SK-LU-1	0.647
NCI-H1395	0.473
201T	0.44
NCI-H1915	0.39
HCC-827	0.408

Cell Line	relative viability
LXF-289	0.542
NCI-H23	0.84
NCI-H647	0.607
CAL-12T	0.627
NCI-H1651	0.311
EPLC-272H	0.256
NCI-H2228	0.319
NCI-H1792	0.258
NCI-H1355	0.424
NCI-H3122	0.42
NCI-H1437	0.314
NCI-H1755	0.639
NCI-H2023	0.471
HCC-15	0.524
PC-14	0.696
EKVX	0.228

Same assay, conditions: first compound 0.253 µM

Cell Line	relative viability
HARA	0.484
HCC-78	0.647
NCI-H322M	0.725
LCLC-97TM1	0.413
NCI-H2009	0.492
A-427	0.336
NCI-H441	0.855
NCI-H661	0.283
NCI-H1734	0.375
NCI-H460	0.32
NCI-H2347	0.35
SK-LU-1	0.4
NCI-H1395	0.459
201T	0.32
NCI-H1915	0.341
HCC-827	0.521

Cell Line	relative viability
LXF-289	0.451
NCI-H23	0.939
NCI-H647	0.293
CAL-12T	0.485
NCI-H1651	0.237
EPLC-272H	0.236
NCI-H2228	0.265
NCI-H1355	0.426
NCI-H3122	0.371
NCI-H1437	0.251
NCI-H1755	0.676
NCI-H2023	0.37
HCC-15	0.431
PC-14	0.551
EKVX	0.23

Same assay, conditions: first compound 0.8 µM

Cell Line	relative viability
HARA	0.483
SW 900	0.656
HCC-78	0.898
NCI-H322M	0.929
LCLC-97TM1	0.435
NCI-H2009	0.489
A-427	0.382
NCI-H441	0.892
NCI-H661	0.28
NCI-H1734	0.412
NCI-H460	0.629
NCI-H2347	0.399
SK-LU-1	0.594
NCI-H1395	0.451
201T	0.508
NCI-H1915	0.389
HCC-827	0.356

Cell Line	relative viability
LXF-289	0.555
NCI-H23	0.8
NCI-H647	0.885
CAL-12T	0.613
NCI-H1651	0.345
EPLC-272H	0.342
NCI-H2228	0.441
NCI-H1792	0.368
NCI-H1355	0.475
NCI-H3122	0.412
NCI-H1437	0.343
NCI-H1755	0.652
NCI-H2023	0.461
HCC-15	0.533
PC-14	0.576
EKVX	0.236

Same assay, conditions: first compound 2.53 µM

Cell Line	relative viability
HARA	0.445
SW 900	0.607
HCC-78	0.75
NCI-H322M	0.769
LCLC-97TM1	0.462
NCI-H2009	0.454
A-427	0.292
NCI-H441	0.755
NCI-H661	0.288
NCI-H1734	0.429
NCI-H460	0.515
NCI-H2347	0.363
SK-LU-1	0.555
NCI-H1395	0.453
201T	0.462
NCI-H1915	0.355
HCC-827	0.392

Cell Line	relative viability
LXF-289	0.504
NCI-H23	0.748
NCI-H647	0.595
CAL-12T	0.578
NCI-H1651	0.296
EPLC-272H	0.259
NCI-H2228	0.315
NCI-H1792	0.239
NCI-H1355	0.456
NCI-H3122	0.367
NCI-H1437	0.283
NCI-H1755	0.625
NCI-H2023	0.368
HCC-15	0.487
PC-14	0.677
EKVX	0.203

Same assay, conditions: first compound 8 µM

Cell Line	relative viability
HARA	0.47
SW 900	0.676
HCC-78	0.679
NCI-H322M	0.678
LCLC-97TM1	0.488
NCI-H2009	0.411
A-427	0.28
NCI-H441	0.72
NCI-H661	0.275
NCI-H1734	0.366
NCI-H460	0.49
NCI-H2347	0.43
SK-LU-1	0.435
NCI-H1395	0.431
201T	0.456
NCI-H1915	0.365
HCC-827	0.341

Cell Line	relative viability
LXF-289	0.502
NCI-H23	0.814
NCI-H647	0.452
CAL-12T	0.438
NCI-H1651	0.267
EPLC-272H	0.282
NCI-H2228	0.247
NCI-H1792	0.262
NCI-H1355	0.44
NCI-H3122	0.356
NCI-H1437	0.306
NCI-H1755	0.552
NCI-H2023	0.276
HCC-15	0.391
PC-14	0.687
EKVX	0.228
